In patent publication US5593984A, “Cephalosporin derivatives” (Yuhan Corporation, priority 1992, dated 1997):
In brackets after ≈: the same amount, converted by molar mass.

Columns and labels:
Type in all cases: cell-based
[1] = test system: B. subtilis ATCC 6633; experiment: MIC by agar dilution, B. subtilis ATCC 6633; settings: B. subtilis ATCC 6633, agar dilution, Mueller-Hinton agar; for MIC: Bacillus subtilis, ATCC6633, 17 h, read-out: Minimal Inhibitory Concentration (MIC)
Summary of the method: (§1)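 Agar dilution MIC: Mueller-Hinton agar, 2-fold compound series, inoculum 10^6 CFU/ml, 35°-37° C., 17±1 h.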

[2] = test system: Staph. aureus ATCC 6538P; experiment: MIC by agar dilution, Staph. aureus ATCC 6538P; settings: Staph. aureus ATCC 6538P, agar dilution, Mueller-Hinton agar; for MIC: Staphylococcus aureus, ATCC6538P, 17 h, read-out: Minimal Inhibitory Concentration (MIC)
Summary of the method: as §1

[3] = test system: Staph. aureus Smith; experiment: MIC by agar dilution, Staph. aureus Smith; settings: Mueller-Hinton agar; for MIC: Staphylococcus aureus, 17 h, read-out: Minimal Inhibitory Concentration (MIC)
Summary of the method: as §1

[4] = test system: Staph. aureus C-57; experiment: MIC by agar dilution, Staph. aureus C-57; settings: Mueller-Hinton agar; for MIC: Staphylococcus aureus, C57, 17 h, read-out: Minimal Inhibitory Concentration (MIC)
Summary of the method: as §1

[5] = test system: Staph. aureus C-5113; experiment: MIC by agar dilution, Staph. aureus C-5113; settings: Mueller-Hinton agar; for MIC: Staphylococcus aureus, C5113, 17 h, read-out: Minimal Inhibitory Concentration (MIC)
Summary of the method: as §1

[6] = test system: Staph. aureus C-5216; experiment: MIC by agar dilution, Staph. aureus C-5216; settings: Mueller-Hinton agar; for MIC: Staphylococcus aureus, C5216, 17 h, read-out: Minimal Inhibitory Concentration (MIC)
Summary of the method: as §1

[7] = test system: S. epidermidis ATCC 12228; experiment: MIC by agar dilution, S. epidermidis ATCC 12228; settings: S. epidermidis ATCC 12228, agar dilution, Mueller-Hinton agar; for MIC: Staphylococcus epidermidis, ATCC12228, 17 h, read-out: Minimal Inhibitory Concentration (MIC)
Summary of the method: as §1

[8] = test system: Ent. aerogenes IFO 12979; experiment: MIC by agar dilution, Ent. aerogenes IFO 12979; settings: Mueller-Hinton agar; for MIC: Klebsiella aerogenes, IFO12979, 17 h, read-out: Minimal Inhibitory Concentration (MIC)
Summary of the method: as §1

[9] = test system: Ent. cloacae IFO 13535; experiment: MIC by agar dilution, Ent. cloacae IFO 13535; settings: Ent. cloacae IFO 13535, agar dilution, Mueller-Hinton agar; for MIC: Enterobacter cloacae, IFO13535, 17 h, read-out: Minimal Inhibitory Concentration (MIC)
Summary of the method: as §1

[10] = test system: E. coli NIHJ JC-2; experiment: MIC by agar dilution, E. coli NIHJ JC-2; settings: E. coli NIHJ JC-2, agar dilution, Mueller-Hinton agar; for MIC: Escherichia coli, NIHJJC2, 17 h, read-out: Minimal Inhibitory Concentration (MIC)
Summary of the method: as §1

[11] = test system: E. coli No. 29; experiment: MIC by agar dilution, E. coli No. 29; settings: E. coli No. 29, agar dilution, Mueller-Hinton agar; for MIC: Escherichia coli, 17 h, read-out: Minimal Inhibitory Concentration (MIC)
Summary of the method: as §1

[12] = test system: E. coli DY-1; experiment: MIC by agar dilution, E. coli DY-1; settings: E. coli DY-1, agar dilution, Mueller-Hinton agar; for MIC: Escherichia coli, DY1, 17 h, read-out: Minimal Inhibitory Concentration (MIC)
Summary of the method: as §1

[13] = test system: K. pneumoniae NCTC 9632; experiment: MIC by agar dilution, K. pneumoniae NCTC 9632; settings: K. pneumoniae NCTC 9632, agar dilution, Mueller-Hinton agar; for MIC: Klebsiella pneumoniae, NCTC9632, 17 h, read-out: Minimal Inhibitory Concentration (MIC)
Summary of the method: as §1

[14] = test system: M. morganii DY-1; experiment: MIC by agar dilution, M. morganii DY-1; settings: M. morganii DY-1, agar dilution, Mueller-Hinton agar; for MIC: Morganella morganii, DY1, 17 h, read-out: Minimal Inhibitory Concentration (MIC)
Summary of the method: as §1

[15] = test system: Ps. aeruginosa ATCC 10145; experiment: MIC by agar dilution, Ps. aeruginosa ATCC 10145; settings: Mueller-Hinton agar; for MIC: Pseudomonas aeruginosa, ATCC10145, 17 h, read-out: Minimal Inhibitory Concentration (MIC)
Summary of the method: as §1

[16] = test system: Ps. aeruginosa NCTC 10490; experiment: MIC by agar dilution, Ps. aeruginosa NCTC 10490; settings: Mueller-Hinton agar; for MIC: Pseudomonas aeruginosa, NCTC10490, 17 h, read-out: Minimal Inhibitory Concentration (MIC)
Summary of the method: as §1

[17] = test system: Ps. aeruginosa DY-2; experiment: MIC by agar dilution, Ps. aeruginosa DY-2; settings: Ps. aeruginosa DY-2, agar dilution, Mueller-Hinton agar; for MIC: Pseudomonas aeruginosa, DY2, 17 h, read-out: Minimal Inhibitory Concentration (MIC)
Summary of the method: as §1

[18] = test system: P. vulgaris NCTC 8313; experiment: MIC by agar dilution, P. vulgaris NCTC 8313; settings: P. vulgaris NCTC 8313, agar dilution, Mueller-Hinton agar; for MIC: Proteus vulgaris, NCTC8313, 17 h, read-out: Minimal Inhibitory Concentration (MIC)
Summary of the method: as §1

[19] = test system: Prov. stuartii IFO 12930; experiment: MIC by agar dilution, Prov. stuartii IFO 12930; settings: Mueller-Hinton agar; for MIC: Providencia stuartii, IFO12930, 17 h, read-out: Minimal Inhibitory Concentration (MIC)
Summary of the method: as §1

[20] = test system: Ser. marcescens IFO 12648; experiment: MIC by agar dilution, Ser. marcescens IFO 12648; settings: Ser. marcescens IFO 12648, agar dilution, Mueller-Hinton agar; for MIC: Serratia marcescens, IFO12648, 17 h, read-out: Minimal Inhibitory Concentration (MIC)
Summary of the method: as §1

| Compound | MIC [1] [µg/mL] | MIC [2] [µg/mL] | MIC [3] [µg/mL] | MIC [4] [µg/mL] | MIC [5] [µg/mL] | MIC [6] [µg/mL] | MIC [7] [µg/mL] | MIC [8] [µg/mL] | MIC [9] [µg/mL] | MIC [10] [µg/mL] | MIC [11] [µg/mL] | MIC [12] [µg/mL] | MIC [13] [µg/mL] | MIC [14] [µg/mL] | MIC [15] [µg/mL] | MIC [16] [µg/mL] | MIC [17] [µg/mL] | MIC [18] [µg/mL] | MIC [19] [µg/mL] | MIC [20] [µg/mL] | other results |
| --- | --- | --- | --- | --- | --- | --- | --- | --- | --- | --- | --- | --- | --- | --- | --- | --- | --- | --- | --- | --- | --- |
| CCO/N=C(\C(=O)N[C@@H]1C(=O)N2C(C(=O)[O-])=C(C[n+]3ccn4c(C(N)=O)ccc4c3C)CS[C@H]12)c1csc(N)n1 [Ex. 44, 7-β-[(Z)-2-(2-aminothiazol-4-yl)-2-ethoxyiminoacetamido]-3-(6-carbamoyl-1-methylpyrrolo[1,2-a]pyrazinium-2-yl)methyl-3-cephem-4-carboxylate] |  |  |  |  |  |  |  |  |  |  |  |  |  |  |  |  |  |  |  |  | Minimal Inhibitory Concentration (MIC) [1]: 0.390 µg/mL; Minimal Inhibitory Concentration (MIC) [2]: 0.200 µg/mL; Minimal Inhibitory Concentration (MIC) [3]: 0.780 µg/mL; Minimal Inhibitory Concentration (MIC) [4]: 100.000 µg/mL; Minimal Inhibitory Concentration (MIC) [5]: 1.560 µg/mL; Minimal Inhibitory Concentration (MIC) [6]: 1.560 µg/mL; Minimal Inhibitory Concentration (MIC) [7]: 0.100 µg/mL; Minimal Inhibitory Concentration (MIC) [8]: 0.050 µg/mL; Minimal Inhibitory Concentration (MIC) [9]: 0.100 µg/mL; Minimal Inhibitory Concentration (MIC) [10]: 0.050 µg/mL; Minimal Inhibitory Concentration (MIC) [11]: 0.025 µg/mL; Minimal Inhibitory Concentration (MIC) [12]: 0.025 µg/mL; Minimal Inhibitory Concentration (MIC) [13]: 0.050 µg/mL; Minimal Inhibitory Concentration (MIC) [14]: 0.100 µg/mL; Minimal Inhibitory Concentration (MIC) [15]: 3.130 µg/mL; Minimal Inhibitory Concentration (MIC) [16]: 0.780 µg/mL; Minimal Inhibitory Concentration (MIC) [17]: 6.250 µg/mL; Minimal Inhibitory Concentration (MIC) [18]: 0.050 µg/mL; Minimal Inhibitory Concentration (MIC) [19]: 0.012 µg/mL; Minimal Inhibitory Concentration (MIC) [20]: 0.050 µg/mL |
| CO/N=C(\C(=O)N[C@@H]1C(=O)N2C(C(=O)[O-])=C(C[n+]3ccn4c(Cl)ccc4c3C)CS[C@H]12)c1csc(N)n1 [Ex. 45, 7-β-[(Z)-2-(2-aminothiazol-4-yl)-2-methoxyiminoacetamido]-3-(6-chloro-1-methylpyrrolo[1,2-a]pyrazinium-2-yl)methyl-3-cephem-4-carboxylate] | 0.1 (≈ 0.178 µM) | 0.1 (≈ 0.178 µM) | 0.39 (≈ 0.694 µM) | 6.25 (≈ 11.1 µM) | 0.39 (≈ 0.694 µM) | 0.78 (≈ 1.39 µM) | 0.012 (≈ 0.0214 µM) | 0.025 (≈ 0.0445 µM) | 0.05 (≈ 0.089 µM) | 0.025 (≈ 0.0445 µM) | 0.012 (≈ 0.0214 µM) | 0.012 (≈ 0.0214 µM) | 0.012 (≈ 0.0214 µM) | 0.012 (≈ 0.0214 µM) | 3.13 (≈ 5.57 µM) | 0.39 (≈ 0.694 µM) | 6.25 (≈ 11.1 µM) | ≤ 0.006 | ≤ 0.006 | 0.025 (≈ 0.0445 µM) |  |
| CO/N=C(\C(=O)N[C@@H]1C(=O)N2C(C(=O)[O-])=C(C[n+]3ccn4c(CO)ccc4c3C)CS[C@H]12)c1csc(N)n1 [Ex. 46, 7-β-[(Z)-2-(2-aminothiazol-4-yl)-2-methoxyiminoacetamido]-3-(6-hydroxymethyl-1-methylpyrrolo[1,2-a]pyrazinium-2-yl)methyl-3-cephem-4-carboxylate] | 0.39 (≈ 0.699 µM) | 0.2 (≈ 0.359 µM) | 0.78 (≈ 1.4 µM) | 50 (≈ 89.7 µM) | 1.56 (≈ 2.8 µM) | 1.56 (≈ 2.8 µM) | 0.1 (≈ 0.179 µM) | 0.05 (≈ 0.0897 µM) | 0.1 (≈ 0.179 µM) | 0.05 (≈ 0.0897 µM) | 0.025 (≈ 0.0448 µM) | 0.025 (≈ 0.0448 µM) | 0.05 (≈ 0.0897 µM) | 0.1 (≈ 0.179 µM) | 3.13 (≈ 5.61 µM) | 0.78 (≈ 1.4 µM) | 0.25 (≈ 0.448 µM) | 0.05 (≈ 0.0897 µM) | 0.012 (≈ 0.0215 µM) | 0.05 (≈ 0.0897 µM) |  |
| CO/N=C(\C(=O)N[C@@H]1C(=O)N2C(C(=O)[O-])=C(C[n+]3ccn4cccc4c3)CS[C@H]12)c1nc(N)sc1Cl [Ex. 47, 7-β-[(Z)-2-(2-amino-5-chlorothiazol-4-yl)-2-methoxyiminoacetamido]-3-(pyrrolo[1,2-a]pyrazinium-2-yl)methyl-3-cephem-4-carboxylate] | 0.025 (≈ 0.0456 µM) | 0.05 (≈ 0.0912 µM) | 0.2 (≈ 0.365 µM) | 1.56 (≈ 2.85 µM) | 0.2 (≈ 0.365 µM) | 0.2 (≈ 0.365 µM) | 0.025 (≈ 0.0456 µM) | 0.012 (≈ 0.0219 µM) | 0.39 (≈ 0.712 µM) | 0.1 (≈ 0.182 µM) | 0.05 (≈ 0.0912 µM) | 0.012 (≈ 0.0219 µM) | 0.05 (≈ 0.0912 µM) | 0.05 (≈ 0.0912 µM) | 0.78 (≈ 1.42 µM) | 0.05 (≈ 0.0912 µM) | 3.13 (≈ 5.71 µM) | ≤ 0.006 | 0.025 (≈ 0.0456 µM) | 0.1 (≈ 0.182 µM) |  |
